This is an account of results in patent US8569344B2, “N-piperidinyl acetamide derivatives as calcium channel blockers” (Zalicus Pharmaceuticals Ltd., priority 2008, dated 2013).

T1 sequence (O43497 whole entry): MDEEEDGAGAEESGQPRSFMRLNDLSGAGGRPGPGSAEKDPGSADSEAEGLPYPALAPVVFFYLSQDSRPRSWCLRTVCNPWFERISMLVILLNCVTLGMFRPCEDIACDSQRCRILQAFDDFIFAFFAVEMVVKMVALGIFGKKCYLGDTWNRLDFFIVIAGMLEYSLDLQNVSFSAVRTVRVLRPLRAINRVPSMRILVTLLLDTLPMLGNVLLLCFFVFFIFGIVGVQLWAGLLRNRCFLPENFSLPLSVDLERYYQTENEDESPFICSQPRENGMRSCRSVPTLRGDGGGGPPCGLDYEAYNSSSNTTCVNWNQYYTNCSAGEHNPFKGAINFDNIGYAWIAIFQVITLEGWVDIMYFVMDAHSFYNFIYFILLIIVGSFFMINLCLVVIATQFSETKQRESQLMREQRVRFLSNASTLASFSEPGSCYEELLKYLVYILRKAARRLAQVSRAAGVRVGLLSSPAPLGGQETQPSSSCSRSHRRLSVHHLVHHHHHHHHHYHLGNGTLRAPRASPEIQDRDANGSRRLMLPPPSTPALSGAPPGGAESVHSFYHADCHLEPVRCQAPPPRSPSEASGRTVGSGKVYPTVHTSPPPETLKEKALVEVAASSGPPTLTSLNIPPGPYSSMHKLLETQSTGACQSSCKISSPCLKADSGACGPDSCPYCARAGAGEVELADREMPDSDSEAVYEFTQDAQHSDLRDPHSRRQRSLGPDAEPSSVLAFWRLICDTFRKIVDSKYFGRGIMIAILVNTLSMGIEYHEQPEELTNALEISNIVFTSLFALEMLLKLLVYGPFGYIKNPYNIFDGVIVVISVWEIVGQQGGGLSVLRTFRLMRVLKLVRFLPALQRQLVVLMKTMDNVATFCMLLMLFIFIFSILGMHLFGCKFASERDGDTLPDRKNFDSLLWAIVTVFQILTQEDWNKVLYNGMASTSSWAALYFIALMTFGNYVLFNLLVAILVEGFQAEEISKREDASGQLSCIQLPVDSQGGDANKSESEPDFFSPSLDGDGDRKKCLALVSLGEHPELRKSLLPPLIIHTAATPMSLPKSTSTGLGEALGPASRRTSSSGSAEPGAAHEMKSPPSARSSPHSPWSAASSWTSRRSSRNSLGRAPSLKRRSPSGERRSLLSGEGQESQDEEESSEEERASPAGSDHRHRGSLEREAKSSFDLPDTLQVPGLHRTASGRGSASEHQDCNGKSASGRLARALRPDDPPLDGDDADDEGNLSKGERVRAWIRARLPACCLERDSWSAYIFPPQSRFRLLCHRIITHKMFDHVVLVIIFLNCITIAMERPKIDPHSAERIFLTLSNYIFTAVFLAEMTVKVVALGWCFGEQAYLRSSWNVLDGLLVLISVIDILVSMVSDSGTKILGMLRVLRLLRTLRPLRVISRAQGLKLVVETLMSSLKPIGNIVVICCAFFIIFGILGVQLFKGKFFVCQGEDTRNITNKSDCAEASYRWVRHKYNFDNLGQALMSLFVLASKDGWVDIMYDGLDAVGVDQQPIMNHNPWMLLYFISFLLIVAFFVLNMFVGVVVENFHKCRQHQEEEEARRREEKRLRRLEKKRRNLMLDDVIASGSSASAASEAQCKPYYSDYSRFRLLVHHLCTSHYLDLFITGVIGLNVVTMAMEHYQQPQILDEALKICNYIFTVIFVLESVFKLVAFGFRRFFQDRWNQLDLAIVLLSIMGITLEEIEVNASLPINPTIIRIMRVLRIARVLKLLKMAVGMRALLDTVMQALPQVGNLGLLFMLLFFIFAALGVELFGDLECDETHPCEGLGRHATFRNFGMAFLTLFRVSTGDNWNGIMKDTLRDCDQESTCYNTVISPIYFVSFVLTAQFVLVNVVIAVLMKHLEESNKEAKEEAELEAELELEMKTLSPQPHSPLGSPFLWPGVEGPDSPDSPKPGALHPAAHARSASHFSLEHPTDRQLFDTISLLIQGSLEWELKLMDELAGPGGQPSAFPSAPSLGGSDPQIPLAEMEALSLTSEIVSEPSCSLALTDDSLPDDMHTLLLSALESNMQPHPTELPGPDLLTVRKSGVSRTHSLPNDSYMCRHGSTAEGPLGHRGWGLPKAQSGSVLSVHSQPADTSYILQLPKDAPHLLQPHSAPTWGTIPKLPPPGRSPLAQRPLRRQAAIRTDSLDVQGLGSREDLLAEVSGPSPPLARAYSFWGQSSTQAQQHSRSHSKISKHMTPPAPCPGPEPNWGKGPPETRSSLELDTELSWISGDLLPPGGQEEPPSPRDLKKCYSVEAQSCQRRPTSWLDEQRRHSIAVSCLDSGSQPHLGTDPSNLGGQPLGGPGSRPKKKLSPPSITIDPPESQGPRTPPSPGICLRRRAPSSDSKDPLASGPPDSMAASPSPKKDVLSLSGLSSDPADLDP

The experiment concerns the target T1, human α1G T-type channels (Homo sapiens, UniProt O43497).
T1 construct: expressed in transfected cells; host or cells: HEK 293
Put plainly: T-type calcium channel block, whole cell patch clamp in HEK cells (α1G). In kind it is cell-based. The note with it: HEK cells, patch clamp, mainly non-inactivated protocol; values above 10 μM shown as 10 μM, below 0.30 μM shown as 0.30 μM; read-out: T-type Calcium Channel Block α1G IC50. The procedure: T-type calcium channel blocking activity was assayed in human embryonic kidney cells, HEK 293, stably transfected with the T-type calcium channel subunits. Briefly, cells were cultured in Dulbecco's modified eagle medium (DMEM) supplemented with 10% fetal bovine serum, 200 U/ml penicillin and 0.2 mg/ml streptomycin at 37° C. with 5% CO2. At 85% confluency cells were split with 0.25% trypsin/1 mM EDTA and plated at 10% confluency on glass coverslips. […] Fresh DMEM was supplied and the cells transferred to 28° C./5% CO2. Cells were incubated for 1 to 2 days prior to whole cell recording.
Standard patch-clamp techniques were employed to identify blockers of T-type currents. Briefly, previously described HEK cell lines stably expressing human α1G, α1H and α1I T-type channels were used for all the recordings (passage #: 4-20, 37° C., 5% CO2). Whole cell patch clamp experiments were performed using an Axopatch 200B amplifier (Axon Instruments, Burlingame, Calif.) linked to a personal computer equipped with pCLAMP software. Data were analyzed using Clampfit (Axon Instruments) and SigmaPlot 4.0 (Jandel Scientific). To obtain T-type currents, plastic dishes containing semi-confluent cells were positioned on the stage of a ZEISS AXIOVERT S100 microscope after replacing the culture medium with external solution (see below). Whole-cell patches were obtained using pipettes (borosilicate glass with filament, O.D.: 1.5 mm, I.D.: 0.86 mm, 10 cm length), fabricated on a SUTTER P-97 puller with resistance values of ˜5 MΩ (see below for internal solution).
In the non-inactivating protocol, the holding potential is set at −110 mV and with a pre-pulse at −100 mV for 1 second prior to the test pulse at −40 mV for 50 ms.
Test compounds were dissolved in external solution, 0.1-0.01% DMSO. After ˜10 min rest, they were applied by gravity close to the cell using a WPI microfil tubing. The “non-inactivated” pre-pulse was used to examine the resting block of a compound. The “inactivated” protocol was employed to study voltage-dependent block. […] Values are shown in μM and values above 10 μM are simply represented as 10 μM.
Broadly, the IC50 is the concentration at which inhibition is half-maximal. Turning to `O=C(NCC1CCN(C[C@@H]2CCCN2S(=O)(=O)C2CCC2)CC1)c1cc(F)cc(C(F)(F)F)c1` [Compound 419, (S)-N-((1-((1-(cyclobutylsulfonyl)pyrrolidin-2-yl)methyl)piperidin-4-yl)methyl)-3-fluoro-5-(trifluoromethyl)benzamide], the IC50 came out at 1630 nM.
For `O=C(NCC1CCN(C[C@@H]2CCCN2S(=O)(=O)C2CCCC2)CC1)c1cc(F)cc(C(F)(F)F)c1` [Compound 420, (S)-N-((1-((1-(cyclopentylsulfonyl)pyrrolidin-2-yl)methyl)piperidin-4-yl)methyl)-3-fluoro-5-(trifluoromethyl)benzamide] the value was 700 nM.
For `O=C(NCC1CCN(C[C@@H]2CCCN2S(=O)(=O)CC2CC2)CC1)c1cc(F)cc(C(F)(F)F)c1` [Compound 421, (S)-N-((1-((1-(cyclopropylmethylsulfonyl)pyrrolidin-2-yl)methyl)piperidin-4-yl)methyl)-3-fluoro-5-(trifluoromethyl)benzamide] the value was 4040 nM.
In the case of `O=C(NCC1CCN(C[C@@H]2CCCN2S(=O)(=O)CCC(F)(F)F)CC1)c1cc(F)cc(C(F)(F)F)c1` [Compound 422, (S)-3-fluoro-5-(trifluoromethyl)-N-((1-((1-(3,3,3-trifluoropropyl-sulfonyl)pyrrolidin-2-yl)methyl)piperidin-4-yl)methyl) benzamide], the half-inhibitory concentration (IC50) worked out at 1930 nM.
For `CC(C)(C)C(=O)N1CCC[C@H]1CN1CCC(CNC(=O)c2cc(F)cc(C(F)(F)F)c2)CC1` [Compound 423, (S)-3-fluoro-N-((1-((1-pivaloyl-pyrrolidin-2-yl)methyl)piperidin-4-yl)methyl)-5-(trifluoromethyl) benzamide] the value was 2080 nM; for `CC(C)(C)CC(=O)N1CCC[C@H]1CN1CCC(CNC(=O)c2cc(F)cc(C(F)(F)F)c2)CC1` [Compound 424, (S)-N-((1-((1-(3,3-dimethylbutanol)pyrrolidin-2-yl)methyl)piperidin-4-yl)methyl)-3-fluoro-5-(trifluoromethyl)benzamide], 440 nM.
For the compound `O=C(NCC1CCN(C[C@@H]2CCCN2C(=O)C2CCCC2)CC1)c1cc(F)cc(C(F)(F)F)c1` [Compound 425, (S)-N-((1-((1-(cyclopentanecarbonyl)pyrrolidin-2-yl)methyl)piperidin-4-yl)methyl)-3-fluoro-5-(trifluoromethyl)benzamide], the IC50 is less than 300 nM.
For `O=C(NCC1CCN(C[C@@H]2CCCN2C(=O)CCC(F)(F)F)CC1)c1cc(F)cc(C(F)(F)F)c1` [Compound 426, (S)-3-fluoro-N-((1-((1-(4,4,4-trifluorobutanoyl)pyrrolidin-2-yl)methyl)piperidin-4-yl)methyl)-5-(trifluoromethyl)benzamide] the value was less than 300 nM.
For `CC(C)(C)NC(=O)CN1CCC(CNC(=O)C2(c3ccc(Cl)cc3)CCCC2)CC1` [Compound 428, N-((1-(2-(tert-buylamino)-2-oxoethyl)piperidin-4-yl)methyl)-1-(4-chlorophenyl)cyclopentanecarboxamide] the value was less than 300 nM; for `CC(C)(C)NC(=O)CN1CCC(CNC(=O)c2cc(Br)cc(OC(F)(F)F)c2)CC1` [Compound 429, 3-bromo-N-((1-(2-(tert-butylamino)-2-oxoethyl)piperidin-4-yl)methyl)-5-(trifluoromethoxy)benzamide], less than 300 nM.
For `CC(C)(CO)NC(=O)CN1CCC(CNC(=O)c2cc(C(F)(F)F)cc(C(F)(F)F)c2)CC1` [Compound 430, N-((1-(2-(1-hydroxy-2-methyl-propan-2-ylamino)-2-oxoethyl)piperidin-4-yl)methyl)-3,5-bis(trifluoromethyl)benzamide] the value was less than 300 nM; for `CC1(NC(=O)CN2CCC(CNC(=O)c3cc(C(F)(F)F)cc(C(F)(F)F)c3)CC2)CCCCC1` [Compound 431, N-((1-(2-(1-methylcyclohexylamino)-2-oxoethyl)piperidin-4-yl)methyl)-3,5-bis(trifluoromethyl)benzamide], less than 300 nM.
